# Laboratory results from patent publication US20250034107A1, “SUBSTITUTED 2-(2-(2,6-DIOXOPIPERIDIN-3-YL)-1- OXOISOINDOLIN-5-YL) ACETAMIDE ANALOGS AS MODULATORS OF GSPT1 AND/OR IKZF1 PROTEIN” (St. Jude Children's Research Hospital, Inc., priority 2021, published 2025).
# Experiments:
# [1] = system: neosubstrate degradation; details: more potent in cells than lenalidomide; see Ref. 13; cited from earlier work
# [2] = system: MV-4-11 cells; test: Cell proliferation assay (Cell Titer-Glo), MV-4-11 cells; format: cell-based; details: Homo sapiens, MV4-11; MV411 cells, 72 h incubation
# Procedure: (§1) MV-4-11 cell line was purchased from the American Type Culture Collection (ATCC, Manassas, VA) and maintained in Iscove's Modified Dulbecco's medium (IMDM; (ATCC) supplemented with 10% FBS. MHHCALL4 cell line was purchased from the German Collection of Microorganisms and Cell Cultures GmbH (DSMZ) and maintained in RPMI 1640 medium supplemented with 10% fetal bovine serum (HyClone), penicillin/streptomycin (100 U/mL), and glutamine ([…]) at 37° C. in a humidified 5% C02 incubator. Exponentially growing MV-4-11 cells were plated at 1250 cells per well and MHH-CALL-4 cells were plated at 7,500 cells per well in Corning 8804BC white 384-well assay plates and incubated overnight at 37° C. in a humidified 5% CO2 incubator. Compounds were transferred to the assay plate from a dose-response plate using a Pintool on a Biomek FXP Laboratory Automation Workstation (Beckman Coulter). Cytotoxicity was determined following 72 hours of incubation using Promega Cell Titer Glo reagent according to the manufacturer's recommendation. Luminescence was measured on an Envision plate reader (Perkin-Elmer).
# (§2) Compounds were screened in human cancer cell lines and each cell line was cultured in the complete medium recommended by the vendor and seeded in Corning 8804BC white 384-well assay plates at density of 1250 cells per well for MV-4-11 cells and of 7,500 cells per well for MHH-CALL-4 cells. After overnight incubation at 37° C. in a humidified 5% CO2 incubator, cells were treated with compounds in dose-response format using a Pintool on a Biomek FXP Laboratory Automation Workstation (Beckman Coulter). After 72 h incubation, cell proliferation was assessed using Cell Titer-Gbo (CTG) luminescent cell viability assay (Promega) according to the manufacturer's instruction. Luminescence signal was measured using an Envision plate reader (Perkin-Elmer).
# [3] = system: MHHCALL4 cells; test: Cell proliferation assay (Cell Titer-Glo), MHH-CALL-4 cells; format: cell-based, human; details: 72 h incubation; for EC50: Homo sapiens
# Procedure: as §1, §2
# [4] = molecular target: T1, hGSPT1 (Homo sapiens, UniProt P15170+Q96SW2); test: hGSPT1 HiBiT assay (level of GSPT1 HiBiT tag protein, Nano-Glo HiBiT Lytic Detection); format: cell-based; details: HEK293 hGSPT1 HiBiT tag cells, 4 hrs incubation
# T1 construct: host or cells: HEK293
# T1 sequence (P15170 whole entry): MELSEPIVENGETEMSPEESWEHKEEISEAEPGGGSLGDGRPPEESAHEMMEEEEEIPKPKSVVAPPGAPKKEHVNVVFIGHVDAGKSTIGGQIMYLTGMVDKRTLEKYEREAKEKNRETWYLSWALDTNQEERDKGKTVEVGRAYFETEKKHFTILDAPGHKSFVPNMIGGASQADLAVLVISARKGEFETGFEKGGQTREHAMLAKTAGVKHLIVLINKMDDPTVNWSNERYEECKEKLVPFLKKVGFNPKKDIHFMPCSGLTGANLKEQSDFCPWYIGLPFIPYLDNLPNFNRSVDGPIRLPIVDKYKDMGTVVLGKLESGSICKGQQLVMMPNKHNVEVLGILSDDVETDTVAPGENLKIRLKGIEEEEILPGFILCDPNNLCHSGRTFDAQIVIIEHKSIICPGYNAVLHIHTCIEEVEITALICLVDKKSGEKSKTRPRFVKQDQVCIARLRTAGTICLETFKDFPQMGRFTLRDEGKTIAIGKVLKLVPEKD
# T1 sequence (Q96SW2 whole entry): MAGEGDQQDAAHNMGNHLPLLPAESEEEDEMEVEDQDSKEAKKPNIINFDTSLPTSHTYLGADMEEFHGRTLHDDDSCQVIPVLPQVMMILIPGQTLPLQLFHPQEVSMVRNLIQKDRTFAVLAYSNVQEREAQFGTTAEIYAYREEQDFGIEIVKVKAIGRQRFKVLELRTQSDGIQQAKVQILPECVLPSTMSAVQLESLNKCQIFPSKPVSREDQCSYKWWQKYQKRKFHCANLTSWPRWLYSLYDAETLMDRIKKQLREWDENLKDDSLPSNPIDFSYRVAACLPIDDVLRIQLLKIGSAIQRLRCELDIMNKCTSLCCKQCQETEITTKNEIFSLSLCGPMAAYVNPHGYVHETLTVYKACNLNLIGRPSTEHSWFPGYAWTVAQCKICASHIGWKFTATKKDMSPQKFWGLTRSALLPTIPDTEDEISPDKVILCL
# T1 sequence (Q16531 whole entry partner): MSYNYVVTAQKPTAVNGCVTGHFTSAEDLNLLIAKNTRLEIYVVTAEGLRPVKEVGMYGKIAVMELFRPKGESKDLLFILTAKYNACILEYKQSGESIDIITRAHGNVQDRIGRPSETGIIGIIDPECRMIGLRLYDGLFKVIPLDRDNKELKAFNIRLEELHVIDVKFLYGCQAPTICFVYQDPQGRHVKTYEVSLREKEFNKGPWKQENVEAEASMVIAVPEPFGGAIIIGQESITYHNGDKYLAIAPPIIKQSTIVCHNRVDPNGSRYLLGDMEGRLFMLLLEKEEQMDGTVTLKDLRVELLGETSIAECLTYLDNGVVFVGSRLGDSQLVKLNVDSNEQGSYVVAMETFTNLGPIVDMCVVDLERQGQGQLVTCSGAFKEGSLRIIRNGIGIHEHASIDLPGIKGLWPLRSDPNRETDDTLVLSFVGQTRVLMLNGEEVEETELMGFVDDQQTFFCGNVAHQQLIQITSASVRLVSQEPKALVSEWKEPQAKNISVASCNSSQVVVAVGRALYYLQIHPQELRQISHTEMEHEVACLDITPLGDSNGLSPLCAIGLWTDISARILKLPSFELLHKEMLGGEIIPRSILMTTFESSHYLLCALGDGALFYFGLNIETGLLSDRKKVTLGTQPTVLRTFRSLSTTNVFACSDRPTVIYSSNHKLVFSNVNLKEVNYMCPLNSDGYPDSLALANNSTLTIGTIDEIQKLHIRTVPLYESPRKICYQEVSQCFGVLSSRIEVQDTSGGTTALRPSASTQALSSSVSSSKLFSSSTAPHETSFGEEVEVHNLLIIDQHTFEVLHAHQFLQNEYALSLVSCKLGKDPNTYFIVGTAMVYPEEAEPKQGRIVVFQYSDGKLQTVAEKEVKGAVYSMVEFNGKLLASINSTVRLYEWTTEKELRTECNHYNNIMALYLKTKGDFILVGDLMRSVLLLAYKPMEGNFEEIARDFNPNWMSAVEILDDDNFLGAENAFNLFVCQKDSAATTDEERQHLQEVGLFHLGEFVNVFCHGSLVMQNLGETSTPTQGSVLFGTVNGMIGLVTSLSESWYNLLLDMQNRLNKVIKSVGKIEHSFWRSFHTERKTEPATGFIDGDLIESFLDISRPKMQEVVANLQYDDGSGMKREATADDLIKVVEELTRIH
# Procedure: HEK293 hGSPT1 HiBiT tag cells were seeded in white 384-well assay plates at density of 800 cells per well in triplicates. After overnight incubation, cells were treated with compounds in dose-response format using a Pintool on a Biomek FXP Laboratory Automation Workstation (Beckman Coulter). After 4 hrs incubation, the level of GSPT1 HiBiT tag protein was evaluated using Nano-Glo® HiBiT Lytic Detection System (Promega) according to the manufacturer's instruction. Luminescence signal was measured using an Envision plate reader (Perkin-Elmer).
smiles,measurement,setting,value
O=C1CC[C@H](N2Cc3c(OCc4ccc(CN5CCOCC5)cc4)cccc3C2=O)C(=O)N1 [CC-220],potency in cells relative to lenalidomide,[1],10 fold
O=C(Cc1ccc2c(c1)CN(C1CCC(=O)NC1=O)C2=O)NCc1ccccc1 (stereo not drawn) [Compound 1],EC50,[2],< 1 nM
same,EC50,[3],< 1 nM
same,DC50,[4],< 1 nM
O=C1CCC(N2Cc3cc(CC(=O)NC4CCCCC4)ccc3C2=O)C(=O)N1 (stereo not drawn) [Compound 2],EC50,[2],> 5800 nM
same,"MHHCALL4 Cell Proliferation Assay, result in words",[3]; printed in place of an EC50,cytostatic at 10 nM
same,DC50,[4],> 7100 nM
CCN(C(=O)Cc1ccc2c(c1)CN(C1CCC(=O)NC1=O)C2=O)c1ccccc1 (stereo not drawn) [Compound 3],EC50,[2],> 8700 nM
same,EC50,[3],> 10700 nM
COCCNC(=O)Cc1ccc2c(c1)CN(C1CCC(=O)NC1=O)C2=O (stereo not drawn) [Compound 4],EC50,[2],> 6700 nM
same,EC50,[3],> 8200 nM
CCN(CC)C(=O)Cc1ccc2c(c1)CN(C1CCC(=O)NC1=O)C2=O (stereo not drawn) [Compound 5],EC50,[2],> 1730 nM
CC(C)NC(=O)Cc1ccc2c(c1)CN(C1CCC(=O)NC1=O)C2=O (stereo not drawn) [Compound 6],EC50,[2],> 6900 nM
same,EC50,[3],> 8500 nM
O=C(Cc1ccc2c(c1)CN(C1CCC(=O)NC1=O)C2=O)NCC1CC1 (stereo not drawn) [Compound 7],EC50,[2],> 8200 nM
same,EC50,[3],> 10100 nM
Cc1ccc(CNC(=O)Cc2ccc3c(c2)CN(C2CCC(=O)NC2=O)C3=O)cc1 (stereo not drawn) [Compound 8],EC50,[2],< 1 nM
same,EC50,[3],< 1 nM
same,DC50,[4],< 1 nM
O=C(Cc1ccc2c(c1)CN(C1CCC(=O)NC1=O)C2=O)NCc1ccc(F)cc1 (stereo not drawn) [Compound 9],EC50,[2],3 nM
same,EC50,[3],< 1 nM
same,DC50,[4],< 1 nM
O=C(Cc1ccc2c(c1)CN(C1CCC(=O)NC1=O)C2=O)NCc1cccc(C(F)(F)F)c1 (stereo not drawn) [Compound 10],EC50,[2],< 1 nM
same,EC50,[3],< 1 nM
same,DC50,[4],< 1 nM
O=C(Cc1ccc2c(c1)CN(C1CCC(=O)NC1=O)C2=O)NCCc1ccccc1 (stereo not drawn) [Compound 11],EC50,[3],< 1 nM
same,DC50,[4],< 1 nM
O=C(Cc1ccc2c(c1)CN(C1CCC(=O)NC1=O)C2=O)NCc1cccc2ccccc12 (stereo not drawn) [Compound 12],EC50,[2],5 nM
same,EC50,[3],< 1 nM
same,DC50,[4],< 1 nM
COc1ccc(NC(=O)Cc2ccc3c(c2)CN(C2CCC(=O)NC2=O)C3=O)cc1 (stereo not drawn) [Compound 13],EC50,[2],< 1 nM
same,EC50,[3],< 1 nM
same,DC50,[4],< 1 nM
O=C1CCC(N2Cc3cc(CC(=O)N4CCOCC4)ccc3C2=O)C(=O)N1 (stereo not drawn) [Compound 14],EC50,[2],> 2200 nM
same,EC50,[3],21 nM
same,DC50,[4],> 2700 nM
O=C1CCC(N2Cc3cc(CC(=O)N4CCCCC4)ccc3C2=O)C(=O)N1 (stereo not drawn) [Compound 15],EC50,[2],> 8700 nM
same,EC50,[3],> 10700 nM
O=C(Cc1ccc2c(c1)CN(C1CCC(=O)NC1=O)C2=O)NCc1ccc(Cl)cc1 (stereo not drawn) [Compound 16],EC50,[3],< 1 nM
same,DC50,[4],< 1 nM
O=C1CCC(N2Cc3cc(CC(=O)Nc4ccccc4)ccc3C2=O)C(=O)N1 (stereo not drawn) [Compound 17],EC50,[2],744 nM
same,EC50,[3],4 nM
same,DC50,[4],> 8100 nM
Cc1ccccc1NC(=O)Cc1ccc2c(c1)CN(C1CCC(=O)NC1=O)C2=O (stereo not drawn) [Compound 18],EC50,[2],> 4900 nM
same,EC50,[3],2 nM
same,DC50,[4],> 5970 nM
COc1cccc(NC(=O)Cc2ccc3c(c2)CN(C2CCC(=O)NC2=O)C3=O)c1 (stereo not drawn) [Compound 19],EC50,[2],5 nM
same,EC50,[3],< 1 nM
O=C1CCC(N2Cc3cc(CC(=O)Nc4cccc(Cl)c4)ccc3C2=O)C(=O)N1 (stereo not drawn) [Compound 20],EC50,[2],5 nM
same,EC50,[3],< 1 nM
same,DC50,[4],< 1 nM
O=C1CCC(N2Cc3cc(CC(=O)Nc4cccc(F)c4)ccc3C2=O)C(=O)N1 (stereo not drawn) [Compound 21],EC50,[2],> 4500 nM
same,EC50,[3],< 1 nM
same,DC50,[4],> 3110 nM
O=C1CCC(N2Cc3cc(CC(=O)Nc4cccc(OCc5ccccc5)c4)ccc3C2=O)C(=O)N1 (stereo not drawn) [Compound 22],EC50,[2],< 1 nM
same,EC50,[3],< 1 nM
same,DC50,[4],< 1 nM
O=C1CCC(N2Cc3cc(CC(=O)Nc4ccc(N5CCCCC5)cc4)ccc3C2=O)C(=O)N1 (stereo not drawn) [Compound 23],EC50,[2],2 nM
same,EC50,[3],< 1 nM
same,DC50,[4],< 1 nM
